This passage reports AC50 and IC50 results from ChEMBL document CHEMBL1201862, “PubChem BioAssay data set” (2004).

The source made the active and inactive calls.

A short description of experiment [1]: A2780 ovarian cancer cell cytotoxicity, dose response, cytotoxicity control, plate reader, dry powder samples (AID 743046). The class given is functional, cell-based.
Experiment [2] in a line: P. falciparum 3D7-ScDHODH growth inhibitors, dose response, SYBR Green, dry powder samples (AID 1159570).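 Further: parasite growth measured after 72 hours of compound exposure.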 It counts as functional, cell-based.
Experiment [3] in a line: P. falciparum Dd2 growth inhibitors, dose response, SYBR Green, dry powder samples, set 9 (AID 1159568). The class given is functional, cell-based.
Experiment [4] is described as follows: IOSE-T80 ovarian epithelial cell cytotoxicity, dose response, cytotoxicity control for PAX8 inhibitor project, plate reader, dry powder samples (AID 743045). It counts as functional, cell-based.
Experiment [5] in a line: cytotoxicity in OVCAR8 ovarian cancer cells, dose response, PAX8 project, cell-based, plate reader, dry powder samples (AID 743197). The class given is functional. The note with it: OVCAR-8.
Experiment [6] can be described thus: HepG2 cell cytotoxicity, dose response, cytotoxicity control, plate reader, cherry-pick, antagonist series (AID 743416). It counts as functional, cell-based.
Experiment [7] can be described thus: NIH:OVCAR-3 ovarian cancer cell cytotoxicity, dose response, PAX8 inhibitor project, plate reader, dry powder samples (AID 743044). The class given is functional, cell-based.
The nature of experiment [8]: A549 cell cytotoxicity, dose response, cytotoxicity control, plate reader, cherry-pick, antagonist series (AID 743412). It counts as functional, cell-based.
A short description of experiment [9]: MC4R antagonists, dose response, counter-screen for LGR2 antagonist project, cell-based, plate reader, cherry pick (AID 743444).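 Further: transfected HEK 293 cells stimulated with alpha-MSH peptide; potency of inhibitors of the alpha-MSH evoked signal.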 The class given is functional. A general note: A counterscreen serves to expose hits that act by an unwanted route or on another target.
Experiment [10] can be described thus: P. falciparum Dd2 growth inhibitors, dose response, SYBR Green, dry powder samples (AID 1159566).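 Further: potency for growth inhibition with lower SYBR green DNA signal.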 The class given is functional, cell-based.
The nature of experiment [11]: P. falciparum ATP4 D1247Y mutant growth inhibitors, dose response, NITD609-resistant line, SYBR Green, dry powder (AID 1159571).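 Further: parasites synchronized at ring stage by sorbitol before testing.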 It counts as functional, cell-based.
Experiment [12] in a line: IGROV1 ovarian cancer cell cytotoxicity, dose response, PAX8 inhibitor project, plate reader, dry powder samples (AID 743043). It counts as functional, cell-based. The note with it: IGROV-1.
The nature of experiment [13]: LGR2 antagonists, dose response, cell-based, HEK293, CRE-luciferase reporter, cherry pick, set 2 (AID 743343).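 Further: transfected cells were stimulated with diluted bursicon conditioned medium after compound addition.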 It counts as functional. (Reporter assays use an easily measured gene product as a stand-in for the process of interest.)
Experiment [14] is described as follows: P. falciparum Dd2 growth inhibitors, dose response, SYBR Green, cherry-picked samples (AID 1159567). The class given is functional, cell-based.
The nature of experiment [15]: HEK293 cell cytotoxicity, dose response, cytotoxicity control, plate reader, cherry-picked samples (AID 743446). It counts as functional, cell-based.
Experiment [16] is described as follows: HepG2 cell cytotoxicity, dose response, cytotoxicity control, plate reader, dry powder samples (AID 1159569).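 Further: inhibitor potency with signal falling toward the positive control level.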 It counts as functional, cell-based.
The target in a further experiment is Paired box protein Pax-8 (Homo sapiens, UniProt Q06710). As to the kind of experiment: inhibitors of PAX8-driven TPO luciferase reporter, dose response, RMG-I cells, cherry-pick (AID 687027).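 Further: luciferase reporter driven by Pax8 target thyroperoxidase promoter measured by SteadyGlo luminescence.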 The class given is functional, cell-based.
The target in experiment [17] is T1, NADPH oxidase 1 (Homo sapiens, UniProt Q9Y5S8).
T1 sequence (Q9Y5S8 whole entry): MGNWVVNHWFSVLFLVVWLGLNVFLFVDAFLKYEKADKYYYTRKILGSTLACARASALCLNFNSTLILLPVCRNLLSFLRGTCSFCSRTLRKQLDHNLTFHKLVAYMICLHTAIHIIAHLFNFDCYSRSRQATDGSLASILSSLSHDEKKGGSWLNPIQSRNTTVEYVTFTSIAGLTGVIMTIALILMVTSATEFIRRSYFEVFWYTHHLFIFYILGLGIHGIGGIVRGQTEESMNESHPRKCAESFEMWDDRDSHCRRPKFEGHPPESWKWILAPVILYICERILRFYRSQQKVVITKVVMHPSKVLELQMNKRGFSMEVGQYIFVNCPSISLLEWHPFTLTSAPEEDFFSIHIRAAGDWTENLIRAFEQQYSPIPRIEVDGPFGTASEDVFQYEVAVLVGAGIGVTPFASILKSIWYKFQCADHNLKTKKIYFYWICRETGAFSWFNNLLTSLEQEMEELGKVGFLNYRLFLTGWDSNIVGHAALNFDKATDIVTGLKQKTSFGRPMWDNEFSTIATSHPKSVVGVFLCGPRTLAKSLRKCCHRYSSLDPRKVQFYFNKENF
In words: NOX1 inhibitors, concentration-response, dose response, cell-based, luminescence, cherry picks 2 (AID 434997). The class given is functional.

The target in experiment [18] is T1, NADPH oxidase 1. As to the kind of experiment: Late stage results from the probe development effort to identify inhibitors of NOX1: HEK/293 IC50. [Related pubchem assays: 1796 (Summary AID (NOX1)), 2752 (Primary screen (NOX1 inhibitors, synthesized analogs set 2)), 2664 (Primary screen (NOX1 inhibitors, synthesized analogs)), 1792 (Primary Screen (NOX1)), 2545 (Confirmation screen (NOX1 …. It counts as functional.

A short description of experiment [19]: Shn3 3'UTR reporter inhibitors, dose response, cell-based, Clone20 osteoblasts, firefly luciferase, cherry-picked (AID 624132).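 Further: firefly luciferase luminescence from reporter carrying the Shn3 3'UTR in osteoblasts.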 The class given is functional.
The nature of experiment [20]: control 3'UTR Renilla luciferase suppression, dose response, counter-screen for Shn3 inhibitor project, cell-based, Clone20-Shn3RL, cherry-picked (AID 624133). It counts as functional.
Experiment [21] can be described thus: reduction of Shn3 3'UTR firefly luciferase signal, dose response, Schnurri-3 inhibitor project, cell-based, Clone20 osteoblasts, cherry-pick, set 2 (AID 720490).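 Further: actives lower the luminescence signal as inhibitors.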 It counts as functional.
The nature of experiment [22]: A375 melanoma cell viability loss, dose response, counter-screen for MITF modulator project, CellTiter-Glo luminescence, dry powder, set 9 (AID 651591). The class given is functional, cell-based. The note with it: A-375.
Experiment [23] is described as follows: A375 melanoma cell cytotoxicity, dose response, counter-screen for MITF inhibitor project, CellTiter-Glo luminescence, dry powder, set 6 (AID 624488). It counts as functional, cell-based. The conditions noted are these: A-375.
Experiment [24] in a line: MITF Orthogonal Assay: MALME3 CTG Assay Measured in Cell-Based System Using Plate Reader - 2084-04_Inhibitor_Dose_DryPowder_Activity_Set6. The class given is functional. The conditions noted are these: MALME-3.
A short description of experiment [25]: SK-MEL-5 parental cell viability reduction, dose response, orthogonal assay for MITF inhibitor project, CellTiter-Glo luminescence, dry powder, set 8 (AID 651586). The class given is functional, cell-based. In general terms: ATP-based viability assays read luminescence as a measure of living cells.
Experiment [26] can be described thus: SK-MEL-5 parental line viability, dose response, MITF inhibitor project, cell-based, CellTiter-Glo, dry powder, set 6 (AID 624429). It counts as functional.
Experiment [27] in a line: MITF Measured in Cell-Based System Using Plate Reader - 2084-01_Inhibitor_Dose_DryPowder_Activity_Set7. The class given is functional.
Experiment [28] can be described thus: TRPM1 promoter luciferase reporter signal decrease, dose response, MITF inhibitor project, cell-based, SK-MEL-5, dry powder, set 9 (AID 651588). It counts as functional.
A short description of experiment [29]: MITF Measured in Cell-Based System Using Plate Reader - 2084-01_Inhibitor_Dose_DryPowder_Activity_Set6. It counts as functional.
Experiment [30] is described as follows: MALME3 melanoma cell viability reduction, dose response, orthogonal assay for MITF inhibitor project, CellTiter-Glo luminescence, dry powder, set 5 (AID 651584). The class given is functional, cell-based. The conditions noted are these: MALME-3.
A short description of experiment [31]: A375 melanoma cell viability loss, dose response, counter-screen for MITF inhibitor project, CellTiter-Glo luminescence, dry powder, set 4 (AID 624364).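 Further: A375 melanoma cells are MITF independent so this is a counter screen.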 The class given is functional, cell-based. The conditions noted are these: A-375.
Experiment [32] in a line: A375 melanoma cell cytotoxicity, dose response, counter-screen for MITF inhibitor project, CellTiter-Glo luminescence, dry powder, set 2 (AID 624489).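 Further: actives are compounds lowering A375 viability meaning general cytotoxicity.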 It counts as functional, cell-based. The note with it: A-375.
Experiment [33] is described as follows: MITF Orthogonal Assay: SK-MEL-5 CTG Assay Measured in Cell-Based System Using Plate Reader - 2084-02_Inhibitor_Dose_DryPowder_Activity_Set5. It counts as functional.
Experiment [34] is described as follows: A375 melanoma cell cytotoxicity, dose response, counter-screen for MITF inhibitor project, CellTiter-Glo luminescence, dry powder, set 7 (AID 624490). The class given is functional, cell-based. The note with it: A-375.
Experiment [35] in a line: Dose-response inhibition of insulin secretion in a rat insulinoma line at 5 mM glucose (AID 1117331). The class given is functional, cell-based. The note with it: INS-1E.
Experiment [36] addresses Delta-type opioid receptor (Homo sapiens, UniProt P41143). In words: Late-stage results from the probe development effort to identify antagonists of OPRK1: fluorescence-based cell-based dose response OPRD1 counterscreen. It counts as functional.
The next experiment has as its target Mu-type opioid receptor (Homo sapiens, UniProt P35372). As to the kind of experiment: Late-stage results from the probe development effort to identify antagonists of OPRK1: luminescence-based cell-based dose response OPRM1 counterscreen. The class given is functional.

Sequence of Mu-type opioid receptor (P35372 whole entry): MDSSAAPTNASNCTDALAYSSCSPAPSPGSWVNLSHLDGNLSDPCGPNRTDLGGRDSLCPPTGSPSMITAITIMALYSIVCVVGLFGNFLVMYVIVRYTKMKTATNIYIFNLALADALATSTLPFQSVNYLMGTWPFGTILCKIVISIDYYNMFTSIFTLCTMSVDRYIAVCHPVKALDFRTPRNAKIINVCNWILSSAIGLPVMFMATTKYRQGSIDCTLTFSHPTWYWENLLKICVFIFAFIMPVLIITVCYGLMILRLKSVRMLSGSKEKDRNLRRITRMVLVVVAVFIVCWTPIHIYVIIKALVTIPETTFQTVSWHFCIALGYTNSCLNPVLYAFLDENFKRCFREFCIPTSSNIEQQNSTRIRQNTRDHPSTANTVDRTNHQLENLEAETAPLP
Sequence of Paired box protein Pax-8 (Q06710 whole entry): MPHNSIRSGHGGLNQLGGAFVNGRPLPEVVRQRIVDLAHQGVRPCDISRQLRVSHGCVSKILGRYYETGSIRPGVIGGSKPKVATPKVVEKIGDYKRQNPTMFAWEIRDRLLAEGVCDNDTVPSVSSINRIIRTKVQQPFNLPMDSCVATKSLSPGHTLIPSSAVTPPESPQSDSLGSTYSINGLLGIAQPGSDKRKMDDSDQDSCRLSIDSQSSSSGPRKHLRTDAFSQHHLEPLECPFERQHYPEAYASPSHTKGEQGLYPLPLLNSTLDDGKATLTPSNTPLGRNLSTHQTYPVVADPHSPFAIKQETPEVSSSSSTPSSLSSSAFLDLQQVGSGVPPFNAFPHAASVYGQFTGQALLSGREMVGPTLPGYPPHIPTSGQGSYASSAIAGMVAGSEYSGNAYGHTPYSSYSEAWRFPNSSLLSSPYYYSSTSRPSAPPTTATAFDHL
Sequence of Delta-type opioid receptor (P41143 whole entry): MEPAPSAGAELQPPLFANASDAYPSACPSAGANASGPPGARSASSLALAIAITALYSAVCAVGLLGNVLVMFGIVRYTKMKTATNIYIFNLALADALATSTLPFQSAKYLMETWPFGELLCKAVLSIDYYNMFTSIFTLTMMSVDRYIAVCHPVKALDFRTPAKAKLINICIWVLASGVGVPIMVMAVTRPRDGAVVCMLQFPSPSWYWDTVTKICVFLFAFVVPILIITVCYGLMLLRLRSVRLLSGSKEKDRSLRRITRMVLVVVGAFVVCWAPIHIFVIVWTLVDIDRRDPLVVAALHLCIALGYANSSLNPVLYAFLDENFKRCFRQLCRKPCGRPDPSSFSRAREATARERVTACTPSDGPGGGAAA

What is called AC50 is the concentration at which the activity in the assay is half-maximal. For the compound `O=C(C1CC1)N1C[C@@H]2N[C@H](C1)[C@@H]2c1ccc(-c2ccccc2F)cc1`, the AC50 is 5.34 µM (active) in [1]; 0.139 µM (active) in experiment [2]; 0.83 µM (active) in experiment [3]; 3.24 µM (active) in experiment [4]; 2.72 µM (active) in experiment [5]; 4.58 µM (active) in [6]. Also, the AC50 is 5.96 µM (active) in experiment [7]; 1.84 µM (active) in experiment [8]; 2.57 µM (active) in experiment [9]; 0.145 µM (active) in experiment [10]; 0.225 µM (active) in experiment [11]; 4.13 µM (active) in experiment [12]. Further, the AC50 was 2.25 µM (active) in experiment [13]; 0.584 µM (active) in experiment [14]; 4.12 µM (active) in experiment [15]; 32.3 µM (active) in experiment [16]; 1.2 µM (active) at Paired box protein Pax-8.
In general, IC50 refers to the concentration at which inhibition is half-maximal. In the case of `COc1cc(-c2nc(-c3ccccc3)c(-c3ccccc3)[nH]2)ccc1O`, the IC50 at NADPH oxidase 1 [17] was 0.37 µM (active); at NADPH oxidase 1 [18], 1.81 µM (active).
For `Cc1onc(-c2ccccc2Cl)c1C(=O)N(C)C1CCCCC1`, the figures for the AC50 in experiment [19], in experiment [20] and in experiment [21] were 2.74 µM (active), 11.2 µM (active) and 3.59 µM (active), respectively.
With `NC1=C(NC(=O)c2ccccc2)C(=O)c2ccccc2C1=O`, the AC50 was > 70 µM (inactive) in experiment [22]; 60.3 µM (active) in experiment [23]; 14.3 µM (active) in [24]; 10.1 µM (active) in experiment [25]; 9.56 µM (active) in [26]; 7.02 µM (active) in experiment [27]. Also, the AC50 in [28] is 18.6 µM (active); in [29] it was 4.07 µM (active); in experiment [30] it was 14.3 µM (active); in [31], > 70 µM (inactive); in experiment [32], 59.8 µM (active); in experiment [33] it was 6.7 µM (active). Moreover, the AC50 in [34] is > 70 µM (inactive).
As to `COCCCOc1ccnc(C[S+]([O-])c2nc3ccccc3[nH]2)c1C` (stereo not drawn) [RABEPRAZOLE SODIUM], the IC50 in [35] is > 33.3 µM (inactive).
Regarding `COC(=O)c1cc(Br)cnc1N1CCC(NC2CCCCC2OC)CC1` (stereo not drawn), the IC50 in [36] is > 50 µM (inactive); on Mu-type opioid receptor, 12 µM (inactive).
